In patent publication US5622725A, “Wound disinfection and repair” (Alcide Corporation, priority 1996, dated 1997):

Assays:
peritoneal cavity = conditions: infused into the peritoneal cavity and other body cavities; per Ser. No. 08/133,465 and U.S. Pat. No. 5,252,343; cited from earlier work
[1] = Free radical signal by luminometer (modified luminol assay); conditions: One hundred-fold dilutions, within one minute after mixing
Procedure: (§1) ClO2 (75 ppm) is generated by mixing 0.25% chlorite and 1.4% lactic acid. One hundred-fold dilutions are tested within one minute after mixing using electron paramagnetic spectroscopy (ESR) and a LKB luminometer.
The luminometer assay utilizes a modified luminol assay for radical detection. Luminol (LH2) reacts with free radicals (R·) as follows: […]
LOO^- →L2 + AP* (aminophthalate dianion, active state)
The pH optimum for the reaction is 10 to 12. The assay is standardized with an enzymatic system in which the generation of free radicals could be quantified by measuring generation of ·O2^-, obtained with the following reaction, […]
hypoxanthine+xanthine oxidase→urate+·O2^- by the reduction of ferricytochrome C.

[2] = system: polymorphonuclear leukocytes; assay: Chemotaxis, cell integrity (lactate dehydrogenase) and morphology of isolated polymorphonuclear leukocytes; type: cell-based; conditions: in vitro, ClO2 solution 3 to 300 ppm
Source text: To test whether methods of the invention can control the inflammatory response, isolated polymorphonuclear leukocytes, which are among the first cells to be found at a wound or a site of potential infection, are studied with respect to their response to chlorine dioxide solutions and compared with a control containing ibuprofen, a known non-steroid anti-inflammatorycompound. The choice of in vitro assay is chemotaxis.
Isolated polymorphonuclear leukocytes are studied with respect to their response to a ClO2 solution varying in concentration from 3 to 300 ppm and an ibuprofen control. Cellular response and integrity (chemotaxis)is assayed in vitro after incubating with both compounds by measuring lactate dehydrogenase activity and/or release concurrently with observing morphology using scanning electron microscopy and/or transmission electron microscopy.
The results are graphically illustrated in FIGS. 1 to 3. The x-axis in the figures show dilutions of a 0.5 mg/ml ibuprofen solution, and chlorine dioxide solutions prepared by combining lactic acid with sodium chlorite and diluting to yield chlorine dioxide concentrations as follows: […], 1:10 is 60 ppm ClO2, 1:20 is 30 ppm ClO2, 1:50 is 12 ppm ClO2, 1:100 is 6 ppm ClO2, 1:150 is 4 ppm ClO2, and 1:200 is 3 ppm ClO2.
A negative control is denoted by .smallcircle.. […]

[3] = system: lactobacilli, streptococci, coliforms, Klebsiella species, Enterobacter species, Bacteroides species, clostridia and eubacteria; assay: Broad-spectrum antimicrobial activity; type: cell-based; conditions: aerobic and anaerobic
Source text: In one embodiment, the present invention is directed to the use of effective amounts of chlorine dioxide as a peritoneal cavity irrigant. The enteric organisms which enter the peritoneal cavity through contamination by gastrointestinal contact, whether by physical trauma or during surgery, are all susceptible to the cidal effects of chlorine dioxide, which is a broad-spectrum antimicrobial. […] However, as mentioned in the Introduction, addition of antibiotics to the irrigating solution has not provided any additional benefit (Hau and Nishikawa, cited above), and it is presumed that the peritoneal irrigation derives from its mechanical effect. The ineffectivenss of local antibiotic solutions has been surprising to researchers, since the antibiotics that have been used were capable of in vitro inhibition of the bacterial species present in the peritoneal cavity. It may be that the lack of effect was attributable to the brevity of contact of the antibiotic with the organisms, since usual flush times approximate five minutes or less in duration, which would be too short for significant cidal action to occur.

[4] = Free radical signal by electron spin resonance (ESR); conditions: One hundred-fold dilutions, within one minute after mixing
Procedure: as §1
For the ESR assay, the chlorine dioxide solution is frozen in liquid nitrogen to -167° C. and electron spin resonance analyzed using a Varian E3 instrument.

[5] = system: free radicals generated by xanthine oxidase (XO) on xanthine; assay: Scavenging of free radicals generated by xanthine oxidase on xanthine (ferricytochrome C reduction); type: biochemical
Source text: Since recent studies indicate that the superoxide radical is the active form of oxygen in the prolyl and lysyl hydrolyase reactions during collagen synthesis, this example assesses the effects that compositions of the invention have on free radicals.
Free radicals are generated in vitro by the action of xanthine oxidase (XO) on xanthine. The generation of free radicals is monitored by the reduction of ferricytochrome C by the system. The action of chlorine dioxide is compared with the scavenging action of the well known free radical scavengers superoxide dismutase (SOD) and catalase.
The experiments are divided into three groups. In the first group, 50 μmoles of xanthine, 0.0217 units/mg XO, 0.1 mM EDTA are mixed in a total volume of 1.0 ml Hank's Balanced Salt Solution (HBSS). This generated 64 ±8 nmoles oxygen. In the second group, 0.3125 units/mg SOD and 1,300 units catalase are added to the reagents employed in group 1; this yields 19.4 nmoles oxygen. […] In the third group, chlorine dioxide is substituted for the SOD and catalase in the same system; a chlorine dioxide concentration of about 7.5 ppm inhibits free radical formation by 74% and at a concentration of 15 ppm, by 100%.

cows' udders = assay: Infusion into cows' udders, immune response; type: in vivo, cow; conditions: 350 ppm in buffered saline
Source text: It is an advantage of the invention that solutions containing fairly significant levels of ClO2 are particularly well tolerated by tissues. […] ClO2 is capable of being reduced to lower oxidation states, such as chlorite and chloride, upon contact with organic materials, but is less reactive than, for example, hypochlorite, and a volume of ClO2 -containing saline is expected to retain significant antimicrobial activity when used to flush out organic debris from an incised area. Appropriate use levels of ClO2 will vary, depending on the amount of organic detritus in the site, but generally concentrations of about 5 to 250 ppm in approximately isotonic solution can be used with good effect.

## [O][Cl+][O-] [ClO2, chlorine dioxide]
Peritoneal cavity
  inflammatory response on infusion: without evoking the inflammatory response
[1]
  free radical signal: A strong free radical signal is generated
[2]
  effect on chemotaxis / quality and morphology of polymorphonuclear leukocytes: control chemotaxis by affecting the quality and morphology of the associated polymorphonuclear leukocytes
[2]; listed as ClO2 solution
  effect on chemotaxis / quality and morphology of polymorphonuclear leukocytes: affected both the quality and morphology of polymorphonuclear leukocytes
[3]
  demonstrated activity against organisms: demonstrated activity against all relevant organisms, both aerobic and anaerobic
[4]
  free radical signal: A strong free radical signal is generated
[5]; 15 ppm chlorine dioxide
  inhibition of free radical formation: 100%
[5]; about 7.5 ppm chlorine dioxide
  inhibition of free radical formation: 74%
[5]; in words
  inhibition of free radical formation: neutralize the superoxide and related radicals
cows' udders
  safety of infusion / immune response: safely infusable into cows' udders without stimulation of any immune response
